Drawing on ChEMBL document CHEMBL4043168, “The design and SAR of a novel series of 2-aminopyridine based LRRK2 inhibitors” (Bioorg Med Chem Lett, 2017), this text covers inhibition for one compound.

Assay [1] has as its target Serine/threonine-protein kinase Chk2 (Homo sapiens) (UniProt O96017). In words: Inhibition of CHK2 labeling at conserved Lys2 (DLKPENVLLSSQEEDCLIK) in human PBMC at 1 uM.
Assay [2] addresses T1, Tyrosine-protein kinase JAK3 (Homo sapiens) (UniProt P52333).
T1 sequence (whole entry): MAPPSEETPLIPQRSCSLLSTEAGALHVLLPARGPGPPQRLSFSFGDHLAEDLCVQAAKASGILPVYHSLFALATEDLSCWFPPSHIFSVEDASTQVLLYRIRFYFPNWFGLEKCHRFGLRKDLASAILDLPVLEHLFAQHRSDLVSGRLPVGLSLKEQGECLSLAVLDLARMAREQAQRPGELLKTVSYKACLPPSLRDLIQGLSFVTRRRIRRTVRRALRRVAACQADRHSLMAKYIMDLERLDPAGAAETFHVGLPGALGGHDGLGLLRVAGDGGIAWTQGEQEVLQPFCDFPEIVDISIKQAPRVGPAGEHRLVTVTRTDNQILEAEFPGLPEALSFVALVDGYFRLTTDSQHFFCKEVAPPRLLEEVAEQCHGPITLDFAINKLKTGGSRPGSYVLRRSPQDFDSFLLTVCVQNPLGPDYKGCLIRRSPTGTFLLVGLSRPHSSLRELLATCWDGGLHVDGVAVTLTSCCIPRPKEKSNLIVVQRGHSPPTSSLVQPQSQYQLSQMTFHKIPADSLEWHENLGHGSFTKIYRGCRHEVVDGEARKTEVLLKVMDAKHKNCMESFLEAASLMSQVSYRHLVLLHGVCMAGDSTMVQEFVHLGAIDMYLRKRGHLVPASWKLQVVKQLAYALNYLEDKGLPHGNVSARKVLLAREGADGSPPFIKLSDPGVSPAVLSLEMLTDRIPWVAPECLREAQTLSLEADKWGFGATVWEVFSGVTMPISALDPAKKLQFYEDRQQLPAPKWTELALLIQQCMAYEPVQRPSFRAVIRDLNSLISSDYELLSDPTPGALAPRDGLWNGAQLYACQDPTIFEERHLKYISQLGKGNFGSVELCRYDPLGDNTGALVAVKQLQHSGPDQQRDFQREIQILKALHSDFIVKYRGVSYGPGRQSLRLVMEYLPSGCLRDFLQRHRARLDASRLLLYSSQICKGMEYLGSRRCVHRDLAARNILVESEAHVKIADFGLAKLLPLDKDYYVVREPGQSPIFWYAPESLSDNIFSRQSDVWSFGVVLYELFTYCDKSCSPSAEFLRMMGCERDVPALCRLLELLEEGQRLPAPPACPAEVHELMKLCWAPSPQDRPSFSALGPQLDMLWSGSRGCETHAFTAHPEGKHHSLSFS
In words: Inhibition of JAK3 domain2 activation Loop (IADFGLAKLLPLDKDYYVVR) in human PBMC at 1 uM.

In assay [3] the target is Protein kinase C alpha type (Homo sapiens) (UniProt P17252). In words: Inhibition of PKCa conserved Lys2 (DLKLDNVMLDSEGHIK) in human PBMC at 1 uM.
Assay [4] deals with Serine/threonine-protein kinase WNK1 (Homo sapiens) (UniProt Q9H4A3). In words: Inhibition of Wnk1 conserved Lys2 (DLKCDNIFITGPTGSVK) in human PBMC at 1 uM.
Assay [5] addresses Calcium/calmodulin-dependent protein kinase type II subunit alpha (Homo sapiens) (UniProt Q9UQM7). The assay can be described thus: Inhibition of CaMK2a labeling at conserved Lys2 (DLKPENLLLASK) in human PBMC at 0.1 uM.
Assay [6] deals with Calcium/calmodulin-dependent protein kinase type II subunit gamma (Homo sapiens) (UniProt Q13555). The assay can be described thus: Inhibition of CaMK2g labeling at conserved Lys2 (DLKPENLLLASK) in human PBMC at 0.1 uM.
The target of assay [7] is Cyclin-dependent kinase 5 (Homo sapiens) (UniProt Q00535). In words: Inhibition of CDK5 labeling at conserved Lys1 (NRETHEIVALKR) in human PBMC at 0.1 uM.
The target in assay [8] is Mitogen-activated protein kinase 3 (Homo sapiens) (UniProt P27361). In words: Inhibition of Erk1 ATP binding site (DLKPSNLLINTTCDLK) in human PBMC at 0.1 uM.
For assay [9], the target named is Glycogen synthase kinase-3 beta (Homo sapiens) (UniProt P49841). The assay can be described thus: Inhibition of GSK3B conserved Lys2 (DIKPQNLLLDPDTAVLK) in human PBMC at 0.1 uM.
The target of assay [10] is Mitogen-activated protein kinase 14 (Homo sapiens) (UniProt Q16539). The assay can be described thus: Inhibition of p38a (QELNKTIWEVPER) in human PBMC at 0.1 uM.
Assay [11] has as its target T2, Phosphatidylinositol 4,5-bisphosphate 3-kinase catalytic subunit delta isoform (Homo sapiens) (UniProt O00329).
T2 sequence (whole entry): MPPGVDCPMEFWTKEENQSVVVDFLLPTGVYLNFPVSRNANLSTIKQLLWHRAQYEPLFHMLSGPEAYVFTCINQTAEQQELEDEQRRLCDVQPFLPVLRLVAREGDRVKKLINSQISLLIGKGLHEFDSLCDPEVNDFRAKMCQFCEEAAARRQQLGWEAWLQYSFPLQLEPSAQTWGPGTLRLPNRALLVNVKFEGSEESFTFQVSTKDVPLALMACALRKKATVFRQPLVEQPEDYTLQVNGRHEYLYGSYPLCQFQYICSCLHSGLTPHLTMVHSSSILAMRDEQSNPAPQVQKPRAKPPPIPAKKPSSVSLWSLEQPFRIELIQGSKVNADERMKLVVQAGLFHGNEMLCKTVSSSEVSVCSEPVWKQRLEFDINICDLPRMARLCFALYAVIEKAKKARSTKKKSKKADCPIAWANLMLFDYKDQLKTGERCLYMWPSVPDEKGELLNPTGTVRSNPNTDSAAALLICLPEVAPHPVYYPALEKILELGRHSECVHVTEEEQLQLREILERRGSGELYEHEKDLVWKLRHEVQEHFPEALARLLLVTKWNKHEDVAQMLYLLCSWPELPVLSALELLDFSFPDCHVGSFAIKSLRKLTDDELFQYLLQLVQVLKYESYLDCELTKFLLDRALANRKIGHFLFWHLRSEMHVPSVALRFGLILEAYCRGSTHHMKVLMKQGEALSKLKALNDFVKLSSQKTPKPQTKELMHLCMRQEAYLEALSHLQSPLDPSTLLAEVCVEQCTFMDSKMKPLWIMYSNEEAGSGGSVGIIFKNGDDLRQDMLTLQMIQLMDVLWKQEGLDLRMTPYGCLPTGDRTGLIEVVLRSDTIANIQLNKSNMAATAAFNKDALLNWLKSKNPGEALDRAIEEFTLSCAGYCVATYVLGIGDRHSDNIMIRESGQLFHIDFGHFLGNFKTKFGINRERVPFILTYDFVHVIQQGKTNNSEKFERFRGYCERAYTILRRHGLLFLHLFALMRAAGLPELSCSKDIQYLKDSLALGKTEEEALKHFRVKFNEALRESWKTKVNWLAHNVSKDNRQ
The assay can be described thus: Inhibition of PIK3CD ATP binding site (VNWLAHNVSKDNRQ) in human PBMC at 0.1 uM.

SMILES strings stand for the structures.

Chain of Cyclin-dependent kinase 5 (Homo sapiens) (Q00535 whole entry, looked up): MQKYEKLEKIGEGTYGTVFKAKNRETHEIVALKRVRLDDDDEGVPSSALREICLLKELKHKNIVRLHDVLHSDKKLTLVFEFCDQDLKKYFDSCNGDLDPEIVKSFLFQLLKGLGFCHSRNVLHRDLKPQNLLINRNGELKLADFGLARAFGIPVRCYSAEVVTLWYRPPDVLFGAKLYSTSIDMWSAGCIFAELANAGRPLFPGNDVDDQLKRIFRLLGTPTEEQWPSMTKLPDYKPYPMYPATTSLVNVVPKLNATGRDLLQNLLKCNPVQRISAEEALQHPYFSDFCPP
Chain of Serine/threonine-protein kinase Chk2 (Homo sapiens) (O96017 whole entry): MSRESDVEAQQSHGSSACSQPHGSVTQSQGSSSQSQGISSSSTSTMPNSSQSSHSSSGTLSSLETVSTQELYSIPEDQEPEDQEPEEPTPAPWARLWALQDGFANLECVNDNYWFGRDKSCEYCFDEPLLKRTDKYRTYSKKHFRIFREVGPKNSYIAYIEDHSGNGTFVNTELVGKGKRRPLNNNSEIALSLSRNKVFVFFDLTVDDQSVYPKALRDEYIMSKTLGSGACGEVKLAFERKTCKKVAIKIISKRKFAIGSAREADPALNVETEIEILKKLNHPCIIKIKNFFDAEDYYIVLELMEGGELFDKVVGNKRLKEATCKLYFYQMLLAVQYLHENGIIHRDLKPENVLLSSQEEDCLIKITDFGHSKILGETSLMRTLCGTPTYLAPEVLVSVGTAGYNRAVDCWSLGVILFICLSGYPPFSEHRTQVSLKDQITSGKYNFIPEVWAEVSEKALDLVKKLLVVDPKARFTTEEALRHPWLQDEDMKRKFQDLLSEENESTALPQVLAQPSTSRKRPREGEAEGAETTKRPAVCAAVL
Chain of Calcium/calmodulin-dependent protein kinase type II subunit alpha (Homo sapiens) (Q9UQM7 whole entry): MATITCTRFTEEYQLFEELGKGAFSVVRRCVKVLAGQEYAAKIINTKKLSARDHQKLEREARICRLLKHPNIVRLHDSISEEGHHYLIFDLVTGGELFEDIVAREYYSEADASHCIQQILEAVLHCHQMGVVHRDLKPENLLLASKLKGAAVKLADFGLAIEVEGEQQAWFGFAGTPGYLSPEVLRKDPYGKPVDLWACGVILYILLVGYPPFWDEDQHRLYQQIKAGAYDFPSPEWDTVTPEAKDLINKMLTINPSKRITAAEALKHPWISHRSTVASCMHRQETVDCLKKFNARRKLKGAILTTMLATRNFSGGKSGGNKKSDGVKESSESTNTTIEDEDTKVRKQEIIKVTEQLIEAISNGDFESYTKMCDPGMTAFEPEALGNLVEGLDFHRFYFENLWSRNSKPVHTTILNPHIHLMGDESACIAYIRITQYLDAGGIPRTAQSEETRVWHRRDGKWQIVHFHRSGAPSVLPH
Chain of Glycogen synthase kinase-3 beta (Homo sapiens) (P49841 whole entry, looked up): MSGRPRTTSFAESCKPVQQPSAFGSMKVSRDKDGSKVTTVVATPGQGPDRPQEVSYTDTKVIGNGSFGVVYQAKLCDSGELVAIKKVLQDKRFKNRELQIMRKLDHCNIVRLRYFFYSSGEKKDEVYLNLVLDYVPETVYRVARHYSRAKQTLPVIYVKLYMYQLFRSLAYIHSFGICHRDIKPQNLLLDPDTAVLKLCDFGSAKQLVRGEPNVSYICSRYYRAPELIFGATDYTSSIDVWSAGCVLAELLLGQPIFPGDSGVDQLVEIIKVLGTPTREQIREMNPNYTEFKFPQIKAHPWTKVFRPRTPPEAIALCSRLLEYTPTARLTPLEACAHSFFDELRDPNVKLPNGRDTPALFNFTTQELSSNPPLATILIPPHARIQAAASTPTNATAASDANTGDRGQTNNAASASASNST
Chain of Serine/threonine-protein kinase WNK1 (Homo sapiens) (Q9H4A3 whole entry, looked up): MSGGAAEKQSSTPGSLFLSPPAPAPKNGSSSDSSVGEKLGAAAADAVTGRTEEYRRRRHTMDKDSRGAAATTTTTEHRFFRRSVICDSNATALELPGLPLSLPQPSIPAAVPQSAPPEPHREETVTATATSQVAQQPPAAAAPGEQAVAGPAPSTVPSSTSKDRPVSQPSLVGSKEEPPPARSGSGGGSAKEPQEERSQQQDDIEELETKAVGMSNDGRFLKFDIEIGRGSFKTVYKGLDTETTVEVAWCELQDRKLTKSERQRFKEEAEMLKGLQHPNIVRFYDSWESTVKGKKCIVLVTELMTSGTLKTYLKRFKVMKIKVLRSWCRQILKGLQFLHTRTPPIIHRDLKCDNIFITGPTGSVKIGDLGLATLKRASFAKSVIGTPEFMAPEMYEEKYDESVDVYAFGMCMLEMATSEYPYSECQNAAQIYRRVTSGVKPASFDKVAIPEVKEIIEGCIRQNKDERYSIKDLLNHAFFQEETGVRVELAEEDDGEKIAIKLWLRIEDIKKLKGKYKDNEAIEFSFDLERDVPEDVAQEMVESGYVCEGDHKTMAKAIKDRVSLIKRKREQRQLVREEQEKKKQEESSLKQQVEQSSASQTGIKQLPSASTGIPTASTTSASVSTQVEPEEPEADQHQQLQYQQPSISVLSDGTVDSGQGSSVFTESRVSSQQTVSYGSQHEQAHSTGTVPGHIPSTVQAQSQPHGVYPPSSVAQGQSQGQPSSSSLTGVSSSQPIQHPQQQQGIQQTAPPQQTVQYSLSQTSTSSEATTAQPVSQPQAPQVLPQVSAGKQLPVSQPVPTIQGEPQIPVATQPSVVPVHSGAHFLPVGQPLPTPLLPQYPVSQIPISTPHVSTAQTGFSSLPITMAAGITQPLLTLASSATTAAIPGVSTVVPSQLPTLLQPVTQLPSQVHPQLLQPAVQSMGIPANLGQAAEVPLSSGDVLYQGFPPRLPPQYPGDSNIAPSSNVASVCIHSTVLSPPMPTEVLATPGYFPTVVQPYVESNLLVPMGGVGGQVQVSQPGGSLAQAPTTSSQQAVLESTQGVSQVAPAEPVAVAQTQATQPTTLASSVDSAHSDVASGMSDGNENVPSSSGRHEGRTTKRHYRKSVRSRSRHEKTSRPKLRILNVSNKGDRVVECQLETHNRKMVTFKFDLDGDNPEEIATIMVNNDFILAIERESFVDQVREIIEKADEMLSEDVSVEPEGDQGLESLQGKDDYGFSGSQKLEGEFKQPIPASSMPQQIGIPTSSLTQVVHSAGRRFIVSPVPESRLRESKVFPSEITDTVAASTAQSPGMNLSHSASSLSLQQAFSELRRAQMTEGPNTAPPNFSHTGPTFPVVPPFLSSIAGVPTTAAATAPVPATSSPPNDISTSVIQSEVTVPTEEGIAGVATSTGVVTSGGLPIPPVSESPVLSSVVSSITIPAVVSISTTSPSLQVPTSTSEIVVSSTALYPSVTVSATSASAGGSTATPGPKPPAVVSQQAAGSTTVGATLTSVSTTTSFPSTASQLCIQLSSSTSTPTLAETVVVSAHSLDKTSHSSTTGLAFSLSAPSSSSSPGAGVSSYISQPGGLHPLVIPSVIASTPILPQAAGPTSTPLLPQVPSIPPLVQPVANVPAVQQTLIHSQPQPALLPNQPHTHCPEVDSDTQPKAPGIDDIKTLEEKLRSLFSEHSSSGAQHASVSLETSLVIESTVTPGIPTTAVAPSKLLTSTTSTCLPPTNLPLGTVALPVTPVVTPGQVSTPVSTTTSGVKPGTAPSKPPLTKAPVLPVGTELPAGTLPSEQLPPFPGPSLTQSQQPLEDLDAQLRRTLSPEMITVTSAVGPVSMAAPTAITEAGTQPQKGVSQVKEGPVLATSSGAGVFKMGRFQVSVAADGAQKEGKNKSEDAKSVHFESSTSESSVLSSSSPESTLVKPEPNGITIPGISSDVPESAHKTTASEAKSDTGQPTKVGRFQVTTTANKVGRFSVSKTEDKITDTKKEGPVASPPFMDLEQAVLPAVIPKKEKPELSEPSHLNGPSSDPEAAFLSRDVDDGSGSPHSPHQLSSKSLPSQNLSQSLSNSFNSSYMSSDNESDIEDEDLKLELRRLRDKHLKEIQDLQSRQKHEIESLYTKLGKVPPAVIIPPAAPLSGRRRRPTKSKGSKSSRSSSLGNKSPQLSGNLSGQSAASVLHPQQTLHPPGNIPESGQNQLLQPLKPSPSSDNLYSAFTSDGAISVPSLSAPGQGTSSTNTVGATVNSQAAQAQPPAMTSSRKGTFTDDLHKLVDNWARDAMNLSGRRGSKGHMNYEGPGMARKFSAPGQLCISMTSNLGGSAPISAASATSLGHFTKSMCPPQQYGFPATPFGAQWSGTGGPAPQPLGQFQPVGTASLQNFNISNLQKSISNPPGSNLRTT
Chain of Mitogen-activated protein kinase 14 (Homo sapiens) (Q16539 whole entry, canonical isoform): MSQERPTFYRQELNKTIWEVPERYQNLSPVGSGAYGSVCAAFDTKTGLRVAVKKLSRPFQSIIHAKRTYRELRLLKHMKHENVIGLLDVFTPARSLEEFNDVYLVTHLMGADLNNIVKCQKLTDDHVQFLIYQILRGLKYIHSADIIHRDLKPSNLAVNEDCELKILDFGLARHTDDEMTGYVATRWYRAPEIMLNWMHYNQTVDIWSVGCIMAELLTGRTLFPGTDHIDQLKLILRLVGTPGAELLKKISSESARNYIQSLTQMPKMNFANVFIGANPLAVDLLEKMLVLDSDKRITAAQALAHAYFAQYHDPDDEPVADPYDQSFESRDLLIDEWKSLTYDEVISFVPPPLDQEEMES
Chain of Mitogen-activated protein kinase 3 (Homo sapiens) (P27361 whole entry): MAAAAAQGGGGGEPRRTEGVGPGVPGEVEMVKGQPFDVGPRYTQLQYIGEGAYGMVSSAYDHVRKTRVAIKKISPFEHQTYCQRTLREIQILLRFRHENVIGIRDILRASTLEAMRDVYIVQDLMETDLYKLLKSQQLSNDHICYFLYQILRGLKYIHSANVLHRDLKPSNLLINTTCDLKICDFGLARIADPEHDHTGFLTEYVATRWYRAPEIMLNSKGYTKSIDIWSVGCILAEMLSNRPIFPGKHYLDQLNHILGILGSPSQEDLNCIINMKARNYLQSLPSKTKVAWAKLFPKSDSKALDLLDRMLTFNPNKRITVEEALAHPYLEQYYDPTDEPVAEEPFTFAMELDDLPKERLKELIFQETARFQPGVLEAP

What is called inhibition is the change of the read-out against control, counted positive when it falls. In the case of `CC(C)n1cc(-c2cc(-c3ccc(CN4CCOCC4)cc3)cnc2N)nn1`, the inhibition is -7.8% in [1]; 7.8% in assay [2]; -7.4% in assay [3]; 2.2% in assay [4]; -7.5% in assay [5]; -7.5% in assay [6]. In addition, the inhibition is -1.1% in assay [7]; -6.4% in [8]; -10% in assay [9]; 8.2% in assay [10]; 0.5% in [11].
